The source made the active and inactive calls. The rule behind the calls is not given here.
Experiments:
[1] = mammalian cell cytotoxicity, cytotoxicity control, set 3 (AID 504713); conditions: mammalian cell cytotoxicity, viability, CC50; at 100 µM (top of the series)
[2] = tested on: mammalian cell cytotoxicity, viability, CC50; test: as above

Compound	viability [1]	CC50 [2] [µM]
N/C(=N\c1nc2ccccc2o1)NC(=O)C1CC1	83% (inactive)	–
Cc1ccccc1OCC(=O)Nc1ncn[nH]1	95.4% (inactive)	–
CC(=O)c1c(C)n(-c2cccc(Cl)c2)c2ccc(O)cc12	89% (inactive)	–
CC(=O)Nc1ccc2nc(NC(=O)Cc3ccccc3)sc2c1	95.1% (inactive)	–
CCC(CC)c1nnc(NC(=O)c2ccc(N3CCCCC3)c([N+](=O)[O-])c2)s1	96.7% (inactive)	–
Cc1ccc(OCC(=O)Nc2cccc3ccccc23)c(C)c1	93.3% (inactive)	–
CCOc1ccc2c(c1)c(C(C)=O)c(C)n2-c1ccccc1Cl	–	85.7
Cc1ccc(OCC(=O)Nc2nc3c(Cl)cccc3s2)cc1	108% (inactive)	–
S=C(Nc1ccccc1)Nc1ccc(Cl)cn1	107% (inactive)	–
O=C(COc1ccc2c3c(c(=O)oc2c1)CCC3)Nc1nc2ccccc2[nH]1	97% (inactive)	–
Cc1ccc(OCC(=O)Nc2nnn(C)n2)c(C)c1	103% (inactive)	–
CC(C)(C)c1ccc(OCC(=O)Nc2nc3ccccc3s2)cc1	98.8% (inactive)	–
Cc1cc2cc(F)ccc2n1-c1ccccc1	93.3% (inactive)	–
CCCN1CC(O)=C(c2nc3ccccc3s2)C1=N	88.5% (inactive)	–
CC(=O)Nc1ccc2nc(NC(=O)COc3ccccc3)sc2c1	96.2% (inactive)	–
COc1ccc2c(c1)c(C(C)=O)c(C)n2-c1ccccc1	96.1% (inactive)	–
Cc1cc2cc(F)ccc2[nH]1	102% (inactive)	–
COc1ccc2nc(NC(=O)COc3ccccc3)sc2c1	109% (inactive)	–
N/C(=N\c1nc2cc(Cl)ccc2o1)NC(=O)c1ccccc1	–	43.2
Cc1cc(C)c(OCC(=O)Nc2nc3ccc(C)cc3s2)c(C)c1	97.6% (inactive)	–
COc1ccc2[nH]c(C)cc2c1	103% (inactive)	–
CCOc1ccc2[nH]ccc2c1	97.9% (inactive)	–
c1ccc(Nc2ncnc3c2oc2ccccc23)cc1	88% (inactive)	–
Cc1cc2ccccc2n1-c1ccccc1	93.4% (inactive)	–
O=C(Nc1ccccc1)Nc1csc2ccccc12	–	76.6
COc1ccc2nc(NC(=O)COc3ccc(Cl)cc3)sc2c1	95.2% (inactive)	–
Cc1ccc(OCC(=O)Nc2cccc3ncccc23)c(C)c1	92.8% (inactive)	–

Compound	viability [1]	CC50 [2] [µM]
O=C(Cc1ccccc1Cl)Nc1nc2ccccc2[nH]1	100% (inactive)	–
CCOC(=O)c1c(C)[nH]c2ccccc12	85.7% (inactive)	–
O=C(COc1ccc(Cl)cc1)Nc1nc2ccc(F)cc2s1	96.1% (inactive)	–
Cc1ccc(OCC(=O)Nc2ccc3c4c(cccc24)CC3)c(C)c1	80.3% (inactive)	–
COc1cccc(NC(=S)Nc2cc(C)cc(C)n2)c1	100% (inactive)	–
O=C(Cc1csc(-c2ccccc2F)n1)Nc1nc2ccccc2[nH]1	105% (inactive)	–
Cc1ccc(C(C)C)c(OCC(=O)Nc2nc3ccccc3s2)c1	92% (inactive)	–
COc1ccc2nc(NC(=O)COc3ccccc3C(C)C)sc2c1	89.6% (inactive)	–
O=C(CC12CC3CC(CC(C3)C1)C2)NCc1ccc(F)cc1	99.1% (inactive)	–
COc1cccc(NC(=O)C2CC2)c1	90.2% (inactive)	–
CCOc1ccc2c(c1)c(C(C)=O)c(C)n2-c1ccccc1C	–	90.1
CCc1ccc2nc(/N=C(\N)NC(=O)c3ccccc3)nc(C)c2c1	94.8% (inactive)	–
CN(NC(=O)c1c(Cl)cccc1Cl)c1cccc(Cl)n1	93.6% (inactive)	–
Cc1ccc2oc(/N=C(\N)NC(=O)c3ccccc3)nc2c1	–	35.1
COc1ccc2nc(NC(=O)c3oc4ccccc4c3C)sc2c1	94.4% (inactive)	–
COC(=O)c1ccc2nc(NC(=O)COc3ccccc3)sc2c1	99.9% (inactive)	–
CCOC(=O)COc1nc(-c2ccc(Cl)cc2)cc(-c2ccco2)c1C#N	103% (inactive)	–
COC(=O)c1c(C)[nH]c2ccccc12	82.6% (inactive)	–
CCOc1ccc2nc(NC(=O)COc3ccc(Cl)c(C)c3)sc2c1	112% (inactive)	–
CC(=O)c1c(C)n(-c2ccccc2)c2ccccc12	98.2% (inactive)	–
N/C(=N\c1nc2ccccc2o1)NC(=O)c1ccccc1	–	19.3
COc1ccc(Cl)cc1C(=O)Nc1nc2ccccc2[nH]1	–	60.5
Cc1cccnc1NC(=S)NC(=O)c1cncc(Br)c1	108% (inactive)	–
Cc1cccc(C)c1OCC(=O)Nc1nc2ccccc2s1	93.4% (inactive)	–
COc1ccc2nc(NC(=O)COc3c(C)cc(C)cc3C)sc2c1	94.5% (inactive)	–
O=C(COC(=O)C1CC1)c1c[nH]c2ccccc12	98.9% (inactive)	–
CCOc1ccc2nc(NC(=O)C3(c4ccccc4)CCCC3)sc2c1	–	87.6

Compound	viability [1]	CC50 [2] [µM]
Cc1cc2cc(O)ccc2[nH]1	103% (inactive)	–
O=C(O)CCC(=O)Nc1nc2ccccc2s1	102% (inactive)	–
CCOc1ccc2nc(NC(=O)COc3ccc(F)cc3)sc2c1	103% (inactive)	–
COC(=O)c1c(C)[nH]c2ccc(Cl)cc12	80% (inactive)	–
Cc1onc(-c2c(Cl)cccc2Cl)c1/C(N)=N/OC(=O)C1CC1	107% (inactive)	–
CC(C)Cn1c2c(c(O)c(C(=O)Nc3nccs3)c1=O)CCCC2	100% (inactive)	–
CCOC(=O)c1cnc2cc(-c3ccc(C(C)(C)C)cc3)nn2c1N	94.4% (inactive)	–
O=C(Nc1nc2ccccc2[nH]1)c1cc2cc(Br)ccc2o1	–	41.7
CCCOc1ccc2c(c1)c(C(C)=O)c(C)n2-c1ccccc1	97.2% (inactive)	–
COc1ccc(C(=O)Nc2ccc3nc(N4CCCCC4)cc(C)c3c2)c(OC)c1	96.5% (inactive)	–
Cc1ccc(OCC(=O)Nc2ccc(Cl)cc2)c(C)c1	97.9% (inactive)	–
CC(=O)c1c(C)n(-c2ccccc2)c2ccc(OS(=O)(=O)C(F)(F)F)cc12	92.2% (inactive)	–
CCOc1ccc2c(c1)cc(C)n2-c1ccccc1	95.5% (inactive)	–
CCOc1ccc2[nH]cc(C(=O)OC)c2c1	86.9% (inactive)	–
CC(=O)c1c(C)n(-c2ccccc2C)c2ccc(O)cc12	95.5% (inactive)	–
c1ccc(OCc2nnc(-c3ccccc3)o2)cc1	95.4% (inactive)	–
Cc1cc(C)c(OCC(=O)Nc2nc3ccccc3s2)c(Cl)c1	98.1% (inactive)	–
O=C(CSc1n[nH]c(=O)n1C1CC1)c1ccc2c(c1)OCCO2	104% (inactive)	–
Cc1ccc(OC(C)C(=O)Nc2ncccn2)c(C)c1 (stereo not given)	96.2% (inactive)	–
O=C(Nc1nc2ccccc2[nH]1)c1ccc(Cl)c(Cl)c1	90.6% (inactive)	–
O=C(COc1ccccc1Cl)Nc1nc2ccccc2s1	92.2% (inactive)	–
O=C(COc1cccc2ccccc12)Nc1nc2ccccc2s1	82.9% (inactive)	–
Cc1ccccc1OCC(=O)Nc1nnn(C)n1	95.7% (inactive)	–
N/C(=N\c1nc2ccccc2o1)NC(=O)c1ccccc1Br	87% (inactive)	–
CCOc1ccc2c(c1)c(C(C)=O)c(C)n2Cc1ccco1	97.1% (inactive)	–
O=C(COc1ccccc1)Nc1nc2ccccc2s1	104% (inactive)	–
CCOc1ccc2nc(NC(=O)COc3ccc(OC)cc3)sc2c1	102% (inactive)	–

Compound	viability [1]	CC50 [2] [µM]
CCOc1ccc(NC(=O)COc2ccc(C)cc2C)cc1	97.5% (inactive)	–
COc1ccc2nc(NC(=O)COc3ccc(C)cc3)sc2c1	–	87.4
O=C(OC(C(=O)Nc1ccc(Cl)cc1C(F)(F)F)c1ccccc1)C1=COCCO1 (stereo not given)	84.8% (inactive)	–
N/C(=N\c1nc2ccccc2o1)NC(=O)c1ccc(F)cc1	–	57.3
CCOc1ccc2nc(NC(=O)Cc3ccc(OC)cc3)sc2c1	100% (inactive)	–
CC(=O)c1c(C)n(-c2ccc(C)cc2)c2ccc(O)cc12	94.9% (inactive)	–
Cc1ccc2sc(NC(=O)COc3ccccc3)nc2c1C	–	36.6
COc1ccc2c(c1)cc(C)n2-c1ccccc1	92.9% (inactive)	–
CCOc1ccc2c(ccn2-c2ccccc2)c1	99.9% (inactive)	–
O=C(COC(=O)C1=COCCO1)Nc1ccc2c(c1)OCO2	94.5% (inactive)	–
CCOc1ccc2nc(NC(=O)COc3ccccc3)sc2c1	86% (inactive)	–
CC(=O)c1c(C)n(-c2ccccc2)c2ccc(O)cc12	85% (inactive)	–
Cc1ccc(OCC(=O)Nc2nc3ccc(F)cc3s2)cc1	103% (inactive)	–
Cc1ccc(OCC(=O)Nc2cccc3c(NC(=O)COc4ccc(C)cc4C)cccc23)c(C)c1	100% (inactive)	–
CC(Oc1ccc(Cl)cc1)C(=O)Nc1nc2ccccc2s1 (stereo not given)	–	92
Cc1cc(C)c(OCC(=O)Nc2nc3ccccc3[nH]2)c(C)c1	88.5% (inactive)	–
Cc1ccccc1OCC(=O)Nc1ncccn1	106% (inactive)	–
N/C(=N\c1nc2ccccc2o1)NC(=O)c1ccccc1F	99.9% (inactive)	–
CCOc1ccc2[nH]c(C)cc2c1	93% (inactive)	–
COc1cccc(-c2ccc(-c3noc(-c4ccccc4F)n3)c(OC)n2)c1	91.7% (inactive)	–
CCOc1ccc2nc(NC(=O)c3cnccn3)sc2c1	80.3% (inactive)	–
Oc1ccc2[nH]ccc2c1	106% (inactive)	–
Cc1ccccc1OCC(=O)Nc1noc(-c2ccccc2)n1	100% (inactive)	–
c1ccc(-c2cc(N3CCOCC3)nc3ccccc23)cc1	–	90.8

— PubChem BioAssay AID504713 (Southern Research Specialized Biocontainment Screening …, 2011)
